In PubChem BioAssay AID1963973 (Molecular Pharmacology Branch, DTP, NCI, 2024):

Tested on: 883617-216-R-J1-PDC tumor spheroids, viability
Test: Anticancer human tumor 883617-216-R-J1-PDC patient-derived bladder carcinoma cell line growth inhibition [PI3K]
Settings: spheroids with HUVEC and MSC; for IC50: curve of first compound; for viability, T/C: stronger effect = lower value
Procedure, shortened: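 Multi-cell spheroids combine tumor cells with HUVEC and human MSCs, treated with targeted agents alone or with inavolisib, alpelisib, duvelisib or copanlisib. Concentrations fall in half-log steps from at or near clinical Cmax, or from 10 microM where Cmax is unknown; viability read-out.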

[1] = second compound 0.0316 µM, first compound 0.0316 µM
[2] = second compound 0.0316 µM, first compound 0.1 µM
[3] = second compound 0.0316 µM, first compound 0.316 µM
[4] = second compound 0.0316 µM, first compound 1 µM
[5] = second compound 0.0316 µM, first compound 3.16 µM
[6] = second compound 0.0316 µM, first compound 10 µM
[7] = second compound 0.1 µM, first compound 0.0316 µM
[8] = second compound 0.1 µM, first compound 0.1 µM
[9] = second compound 0.1 µM, first compound 0.316 µM
[10] = second compound 0.1 µM, first compound 1 µM
[11] = second compound 0.1 µM, first compound 3.16 µM
[12] = second compound 0.1 µM, first compound 10 µM
[13] = second compound 0.316 µM, first compound 0.0316 µM
[14] = second compound 0.316 µM, first compound 0.1 µM
[15] = second compound 0.316 µM, first compound 0.316 µM
[16] = second compound 0.316 µM, first compound 1 µM
[17] = second compound 0.316 µM, first compound 3.16 µM
[18] = second compound 0.316 µM, first compound 10 µM
[19] = second compound 1 µM, first compound 0.0316 µM
[20] = second compound 1 µM, first compound 0.1 µM
[21] = second compound 1 µM, first compound 0.316 µM
[22] = second compound 1 µM, first compound 1 µM
[23] = second compound 1 µM, first compound 3.16 µM
[24] = second compound 1 µM, first compound 10 µM
[25] = second compound 3.16 µM, first compound 0.0316 µM
[26] = second compound 3.16 µM, first compound 0.1 µM
[27] = second compound 3.16 µM, first compound 0.316 µM
[28] = second compound 3.16 µM, first compound 1 µM
[29] = second compound 3.16 µM, first compound 3.16 µM
[30] = second compound 3.16 µM, first compound 10 µM
[31] = second compound 10 µM, first compound 0.0316 µM
[32] = second compound 10 µM, first compound 0.1 µM
[33] = second compound 10 µM, first compound 0.316 µM
[34] = second compound 10 µM, first compound 1 µM
[35] = second compound 10 µM, first compound 3.16 µM
[36] = second compound 10 µM, first compound 10 µM
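Note: spheroids exposed to agents for 7 days before the viability read.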

`Cn1ncc(Cl)c1-c1cc(C(=O)NC(CN)Cc2cccc(F)c2)sc1Cl` (stereo unspecified) + Cc1nc(NC(=O)N2CCCC2C(N)=O)sc1-c1ccnc(C(C)(C)C(F)(F)F)c1 gave an IC50 (second compound 0.0316 µM) of 249 nM, an IC50 (second compound 0.1 µM) of 236 nM and an IC50 (second compound 0.316 µM) of less than 31.6 nM. It also gave an IC50 (second compound 1 µM) of less than 31.6 nM, an IC50 (second compound 3.16 µM) of less than 31.6 nM and an IC50 (second compound 10 µM) of less than 31.6 nM. The viability, T/C [1] was 88.3%, the viability, T/C [2] was 67.7% and the viability, T/C [3] was 45.5%. The viability, T/C [4] was 26.1%, the viability, T/C [5] was 11.8% and the viability, T/C [6] was 5.02%. For the same compound, the viability, T/C [7] was 75%, the viability, T/C [8] was 67.1% and the viability, T/C [9] was 42.7%. The viability, T/C [10] was 25%, the viability, T/C [11] was 11.1% and the viability, T/C [12] was 4.24%. For the same compound, the viability, T/C [13] was 42.6%, the viability, T/C [14] was 41.6% and the viability, T/C [15] was 34.4%. For the same compound, the viability, T/C [16] was 18.6%, the viability, T/C [17] was 8.47% and the viability, T/C [18] was 2.6%. The viability, T/C [19] was 29.2%, the viability, T/C [20] was 30.8% and the viability, T/C [21] was 20.7%. It also gave a viability, T/C [22] of 13.9%, a viability, T/C [23] of 7.58% and a viability, T/C [24] of 2.44%. For the same compound, the viability, T/C [25] was 15.4%, the viability, T/C [26] was 13.4% and the viability, T/C [27] was 12.4%. For the same compound, the viability, T/C [28] was 8.34%, the viability, T/C [29] was 5.31% and the viability, T/C [30] was 1.74%. For the same compound, the viability, T/C [31] was 9.56%, the viability, T/C [32] was 7.78% and the viability, T/C [33] was 5.02%. The viability, T/C [34] was 5.6%, the viability, T/C [35] was 3.31% and the viability, T/C [36] was 0.93%.

In the case of `CNC(=O)c1ccc(N2C(=S)N(c3ccc(C#N)c(C(F)(F)F)c3)C(=O)C2(C)C)cc1F` + Cc1nc(NC(=O)N2CCCC2C(N)=O)sc1-c1ccnc(C(C)(C)C(F)(F)F)c1, the IC50 (second compound 0.0316 µM) is reported as greater than 10000 nM, the IC50 (second compound 0.1 µM) is reported as greater than 10000 nM and the IC50 (second compound 0.316 µM) is reported as less than 31.6 nM. For the same compound, the IC50 (second compound 1 µM) was less than 31.6 nM, the IC50 (second compound 3.16 µM) was less than 31.6 nM and the IC50 (second compound 10 µM) was less than 31.6 nM. For the same compound, the viability, T/C [1] was 94.3%, the viability, T/C [2] was 75.6% and the viability, T/C [3] was 86.2%. It also gave a viability, T/C [4] of 82.5%, a viability, T/C [5] of 87.8% and a viability, T/C [6] of 63.4%. It also gave a viability, T/C [7] of 74%, a viability, T/C [8] of 67.2% and a viability, T/C [9] of 81.8%. It also gave a viability, T/C [10] of 74.7%, a viability, T/C [11] of 63.6% and a viability, T/C [12] of 73.7%. It also gave a viability, T/C [13] of 48.6%, a viability, T/C [14] of 49.1% and a viability, T/C [15] of 46.7%. For the same compound, the viability, T/C [16] was 45.7%, the viability, T/C [17] was 53.6% and the viability, T/C [18] was 45.6%. It also gave a viability, T/C [19] of 31%, a viability, T/C [20] of 27.3% and a viability, T/C [21] of 33.1%. For the same compound, the viability, T/C [22] was 32.4%, the viability, T/C [23] was 25.9% and the viability, T/C [24] was 31.7%. For the same compound, the viability, T/C [25] was 15.9%, the viability, T/C [26] was 15.3% and the viability, T/C [27] was 17.6%. The viability, T/C [28] was 16.6%, the viability, T/C [29] was 15.7% and the viability, T/C [30] was 14.3%. The viability, T/C [31] was 8.45%, the viability, T/C [32] was 7.75% and the viability, T/C [33] was 8.14%. It also gave a viability, T/C [34] of 7.47%, a viability, T/C [35] of 8.35% and a viability, T/C [36] of 6.73%.

Compound `Cn1nccc1Nc1nccc(-c2ccn(C(CO)c3ccc(Cl)c(F)c3)c(=O)c2)n1` (stereo unspecified) + Cc1nc(NC(=O)N2CCCC2C(N)=O)sc1-c1ccnc(C(C)(C)C(F)(F)F)c1 has an IC50 (second compound 0.0316 µM) of 9040 nM, an IC50 (second compound 0.1 µM) of 2550 nM and an IC50 (second compound 0.316 µM) of less than 31.6 nM. It also gave an IC50 (second compound 1 µM) of less than 31.6 nM, an IC50 (second compound 3.16 µM) of less than 31.6 nM and an IC50 (second compound 10 µM) of less than 31.6 nM. The viability, T/C [1] was 82.5%, the viability, T/C [2] was 79.8% and the viability, T/C [3] was 68.7%. For the same compound, the viability, T/C [4] was 68.3%, the viability, T/C [5] was 68% and the viability, T/C [6] was 46.3%. For the same compound, the viability, T/C [7] was 69.7%, the viability, T/C [8] was 72.5% and the viability, T/C [9] was 66.7%. For the same compound, the viability, T/C [10] was 56%, the viability, T/C [11] was 48.7% and the viability, T/C [12] was 33.2%. It also gave a viability, T/C [13] of 47.3%, a viability, T/C [14] of 44.1% and a viability, T/C [15] of 43.9%. For the same compound, the viability, T/C [16] was 34.5%, the viability, T/C [17] was 30.8% and the viability, T/C [18] was 24.4%. It also gave a viability, T/C [19] of 26.2%, a viability, T/C [20] of 25.7% and a viability, T/C [21] of 26.3%. For the same compound, the viability, T/C [22] was 20.5%, the viability, T/C [23] was 15.1% and the viability, T/C [24] was 12.8%. It also gave a viability, T/C [25] of 13.3%, a viability, T/C [26] of 12.2% and a viability, T/C [27] of 9.5%. It also gave a viability, T/C [28] of 9.97%, a viability, T/C [29] of 8.33% and a viability, T/C [30] of 7.21%. For the same compound, the viability, T/C [31] was 5.74%, the viability, T/C [32] was 5.78% and the viability, T/C [33] was 4.59%. It also gave a viability, T/C [34] of 4.62%, a viability, T/C [35] of 3.21% and a viability, T/C [36] of 1.26%.
